Data on 7 compounds can be found in PMC2748089, “Bactericidal activities of the cationic steroid CSA-13 and the cathelicidin peptide LL-37 against Helicobacter pylori in simulated gastric juice” (BMC Microbiology, 2009).

Read-outs that look alike come from different tables or passages of the source. Ends that are not written are not given here.

The subject of data set [1] is H. pylori. Nature of the data set: MIC of conventional antibiotics against H. pylori on Muller-Hinton agar. The settings on record: for MIC: Helicobacter pylori; for Susceptibility classification by MIC: all H. pylori isolates, resistant when MIC above 4 μg/ml for AMX, 16 μg/ml for TET. The class given is cell-based, Helicobacter pylori.
In a further data set the test system is drug-resistant bacteria. The settings on record: previous susceptibility study; cited from earlier work.
Data set [2] has as its system Human gastric adenocarcinoma cells (ATCC; CRL-1739). Nature of the data set: LDH release from gastric adenocarcinoma cells. To be noted: bactericidal concentrations against H. pylori and E. coli MG1655 in saline and nutrient containing buffer. The class given is cell-based. The text has this: Figure 5 Evaluation of cell toxicity. […] Data shown are means ± SD of three experiments. […] Data from one representative experiment are shown.

In another data set the test system is human red blood cells. The protocol:
(§1) Figure 5 Evaluation of cell toxicity. Hemoglobin and LDH release from human red blood cells and human gastric adenocarcinoma cells (panel A and B respectively) after addition of LL-37 (circles), WLBU2 (diamonds), and CSA-13 (triangles), followed by incubation for 1 h at 37°C. Data shown are means ± SD of three experiments. Morphology of human gastric adenocarcinoma cells before (control) and after LL-37, WLBU2 and CSA-13 treatment was evaluated by phase-contrast microscopy (panel C). Data from one representative experiment are shown.
The hemolytic activity of LL-37, WLBU-2 and CSA-13 (0-200 μg/ml), against human red blood cells (RBC) was tested using erythrocytes suspended in PBS. RBC prepared from fresh blood (Hematocrit ~5%) were incubated for 1 h at 37°C after addition of test molecules. Relative hemoglobin concentration in supernatants after centrifugation at 2000 × g was monitored by measuring the absorbance at 540 nm. 100% hemolysis was taken from samples in which 2% Triton X-100 was added.

Data set [3] deals with Human gastric adenocarcinoma cells (ATCC; CRL-1739). To be noted: 10 μg/ml, 1 hour; phase-contrast microscopy. The protocol:
as §1
Human gastric adenocarcinoma cells (ATCC; CRL-1739) were maintained in DMEM (BioWhittaker) culture supplemented with 10% heat-inactivated fetal bovine serum (Hyclone) at 37°C and 5% CO2. For LDH release assay and microscope evaluation cells were plated in 24 well plates and grown to confluence. In all experiments, the medium was changed to serum-free media ~12 h prior to cell treatment with LL-37, WLBU2 and CSA-13 (0-200 μg/ml) in individual wells, for 1 hour. Cell culture medium was then collected, centrifuged (10 mins, 5000 rpm, RT) and subjected to LDH evaluation (LDH-cytotoxicity Assay Kit; BioVision Inc.)

A further data set concerns Escherichia coli MG1655. The data set is described as follows: Bacteria killing assay after pre-incubation in simulated gastric juice, or with mucin or bile. To be noted: E. coli MG1655, CFU count; for Antibacterial activity after pre-incubation at pH ~1.5 in the presence of pepsin: 3 h pre-incubation at 37°C in simulated gastric juice pH ~1.5 with pepsin 0.5 mg/ml; for Antibacterial activity after pre-incubation at pH ~1.5 in the presence of pepsin / Antibacterial activity after pre-incubation at pH ~1.5: versus PBS pH 7.4, pH adjusted to 7.4 before 1 h killing assay, means of three to four experiments; for Antibacterial activity after pre-incubation at pH ~1.5: 3 h pre-incubation at 37°C in simulated gastric juice pH ~1.5 without pepsin.

Another data set deals with pepsin (Sus scrofa, UniProt P00791). The data set is described as follows: LC-MS analytical characterization after incubation with pepsin at low pH. To be noted: 3 h incubation with pepsin 0.5 mg/ml at pH ~1.5, 37°C; LC-MS (C18, ESI positive); data from one experiment.
The test system of data set [4] is H. pylori. The settings on record: for Change of MBC on addition of 2 mM MgCl2: HEPES buffer with 2 mM MgCl2 versus HEPES, data not shown.
The mark [5] stands for this setting: 96 h, H. pylori clinical strain 1, Muller-Hinton agar with 5% sheep blood, 4 days at 35°C, microaerophilic, read-out: MIC.
[6] abbreviates: 96 h, H. pylori clinical strain 2, Muller-Hinton agar with 5% sheep blood, 4 days at 35°C, microaerophilic, read-out: MIC.
[7] abbreviates: 96 h, H. pylori clinical strain 3, Muller-Hinton agar with 5% sheep blood, 4 days at 35°C, microaerophilic, read-out: MIC.
The mark [8] stands for this setting: 96 h, H. pylori clinical strain 4, Muller-Hinton agar with 5% sheep blood, 4 days at 35°C, microaerophilic, read-out: MIC.
Where [9] appears, read: 96 h, H. pylori clinical strain 5, Muller-Hinton agar with 5% sheep blood, 4 days at 35°C, microaerophilic, read-out: MIC.
The mark [10] stands for this setting: 96 h, H. pylori clinical strain 6, Muller-Hinton agar with 5% sheep blood, 4 days at 35°C, microaerophilic, read-out: MIC.
The mark [11] stands for this setting: 96 h, H. pylori clinical strain 7, Muller-Hinton agar with 5% sheep blood, 4 days at 35°C, microaerophilic, read-out: MIC.
The mark [12] stands for this setting: H. pylori clinical strains 5, 6, 7, resistant when MIC above 1 μg/ml for CLR, 16 μg/ml for Metronidazole.
The mark [13] stands for this setting: HEPES buffer, 6 hours incubation at 37°C, inoculum 10^8 CFU/ml, all isolated strains of H. pylori.

By MIC is commonly meant the least concentration at which growth counts as inhibited.

Chain of pepsin (P00791 60-385): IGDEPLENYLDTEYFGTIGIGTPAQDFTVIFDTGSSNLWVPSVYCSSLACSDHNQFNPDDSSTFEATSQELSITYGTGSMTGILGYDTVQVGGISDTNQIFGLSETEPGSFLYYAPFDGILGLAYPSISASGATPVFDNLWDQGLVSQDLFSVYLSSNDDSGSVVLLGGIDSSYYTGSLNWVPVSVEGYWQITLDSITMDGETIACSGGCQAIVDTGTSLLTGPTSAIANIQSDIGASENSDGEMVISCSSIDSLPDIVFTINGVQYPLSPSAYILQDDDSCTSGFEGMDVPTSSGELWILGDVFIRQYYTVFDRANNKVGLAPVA
Protocol for pepsin: The total ion chromatogram (TIC) is presented for each sample condition with an inset mass-to-charge (m/z) spectra showing intensity for the boxed TIC peaks. The molecular weight of intact LL-37 is 4494, which can be observed with multiple charges (m/z = 4 MW = 1124, m/z = 5 MW = 900, etc) in positive ion mode. The molecular weight of CSA13 is 678, which can be observed directly and with multiple charges. Data from one experiment are shown.
Analytical characterization was performed on the CSA-13 and LL-37 suspensions after 3H incubation with pepsin (0.5 mg/ml) at low pH (~1,5) at 37°C, using the Shimadzu (Columbia, MD) instrument (the LC-MS system consisted of a LC-20AB solvent delivery system and SIL-20A auto-sampler coupled to dual wavelength UV-Vis detector and a LCMS 2010EV single quadrupole mass spectrometer), coupled to a Shimadzu Premier C18 column (150 mm × 4.6 mm i.d., 5 μm particle size). The mobile phase flow rate was 1 ml/min with a starting ratio of 90% mobile phase A (water) and 10% mobile phase B (acetonitrile) both with 0.1% (v/v) formic acid. The analytical method consisted of the following steps: (i) sample injection and holding at 10% B for 5 min, (ii) linear gradient from 10% to 90% B over 15 minutes, (iii) holding at 90% B for 5 minutes, (iv) isocratic step to 10% B and holding for 5 minutes prior to the next sample injection. […]

For `CC1(C)S[C@@H]2[C@H](NC(=O)[C@H](N)c3ccc(O)cc3)C(=O)N2[C@H]1C(=O)O` [AMX, Amoxicillin], the minimum inhibitory concentration (MIC) is 0.094 µg/mL in the data set with H. pylori [1] (setting [5]); under 0.016 µg/mL in the data set with H. pylori [1] (setting [6]); 0.016 µg/mL in the data set on H. pylori [1] (setting [7]); 0.032 µg/mL in the data set with H. pylori [1] (setting [8]); 0.25 µg/mL with H. pylori [1] (setting [9]); 0.032 µg/mL in the data set on H. pylori [1] (setting [10]). The MIC in the data set on H. pylori [1] (setting [11]) is 0.047 µg/mL; in the data set with H. pylori [1] (ATCC43504, 96 h, read-out: MIC) it was 0.016 µg/mL. The “Susceptibility classification by MIC” value in the data set with H. pylori [1] is “susceptible”.
As to `CC[C@H]1OC(=O)[C@H](C)[C@@H](O[C@H]2C[C@@](C)(OC)[C@@H](O)[C@H](C)O2)[C@H](C)[C@@H](O[C@@H]2O[C@H](C)C[C@H](N(C)C)[C@H]2O)[C@](C)(OC)C[C@@H](C)C(=O)[C@H](C)[C@@H](O)[C@]1(C)O` [CLR, clarithromycin], in the data set with H. pylori [1] (setting [12]), the “Resistance classification by MIC” value is on record as “resistant”. For the same compound, the MIC in the data set on H. pylori [1] (96 h) was found to be 0.125 µg/mL; in the data set on H. pylori [1] (setting [6]), 0.19 µg/mL; in the data set with H. pylori [1] (setting [7]), 0.25 µg/mL; in the data set on H. pylori [1] (setting [8]), 0.047 µg/mL; with H. pylori [1] (setting [9]), 64 µg/mL; in the data set on H. pylori [1] (setting [10]), 1.5 µg/mL. Further, the minimum inhibitory concentration (MIC) with H. pylori [1] (setting [11]) was 1.5 µg/mL; in the data set with H. pylori [1] (ATCC43504, 96 h, read-out: MIC), 0.094 µg/mL.
Consider `CCCCCCCCNCCC[C@@H](C)[C@H]1CC[C@H]2[C@@H]3[C@H](OCCCN)C[C@@H]4C[C@H](OCCCN)CC[C@]4(C)[C@H]3C[C@H](OCCCN)[C@]12C` [CSA-13], for which the MIC50/MBC50 ratio in the data set on drug-resistant bacteria was 1. In addition, the “Bactericidal concentrations relative to concentrations causing dysfunction of adenocarcinoma cell membranes” value in data set [2] was “below concentrations causing dysfunction of adenocarcinoma cell membranes”. In addition, the “Bactericidal concentrations relative to minimal hemolytic concentration” value with human red blood cells (bactericidal concentrations against H. pylori and E. coli MG1655 in saline and nutrient containing buffer) was “below its minimal hemolytic concentration”. Further, in data set [3], the “Adenocarcinoma cell morphology versus control cells” value is given as “no visible difference”. Further, in the data set on Escherichia coli MG1655, the “Antibacterial activity after pre-incubation at pH ~1.5 in the presence of pepsin” value is given as “unchanged” and the “Antibacterial activity after pre-incubation at pH ~1.5” value is listed as “unchanged”. Further, in the data set with Escherichia coli MG1655 (mucin 1000 μg/ml, 1 h killing assay at 37°C), the “Bactericidal activity in the presence of purified gastric mucin” value is given as “less inhibited by mucin”. At pepsin, the “Stability to pepsin at low pH (mass spectrometry analysis)” value is “not changed”. Also, in the data set with H. pylori [4], the “average MBC” value was found to be 2.98 ± 3.11 µg/mL. Besides, the “MBC after pre-incubation with buffer at low pH containing pepsin or mucin” value against H. pylori [4] (H. pylori ATCC 43504, 1 h pre-incubation at 37°C in simulated gastric juice pH ~1.5 with pepsin or mucin) is listed as “nearly unchanged”. Further, in the data set on H. pylori [4] (H. pylori ATCC 43504), the “Change of MBC on addition of 2 mM MgCl2” value is “four fold increase”. The “average MBC” value in the data set with H. pylori [4] (setting [13]) was 0.31 ± 0.25 µg/mL. In addition, the “MBC (minimum bactericidal concentration), range over strains” value against H. pylori [4] (nutrient-containing media, clinical isolates of H. pylori) lay within 0.275 to 8.9 µg/mL.
As to `CC[C@H](C)[C@H](NC(=O)[C@H](CCCCN)NC(=O)[C@H](CCC(=O)O)NC(=O)[C@H](CCCCN)NC(=O)[C@H](CO)NC(=O)[C@H](CCCCN)NC(=O)[C@H](CCCNC(=N)N)NC(=O)[C@H](Cc1ccccc1)NC(=O)[C@H](Cc1ccccc1)NC(=O)[C@H](CC(=O)O)NC(=O)CNC(=O)[C@H](CC(C)C)NC(=O)[C@@H](N)CC(C)C)C(=O)NCC(=O)N[C@@H](CCCCN)C(=O)N[C@@H](CCC(=O)O)C(=O)N[C@@H](Cc1ccccc1)C(=O)N[C@@H](CCCCN)C(=O)N[C@@H](CCCNC(=N)N)C(=O)N[C@H](C(=O)N[C@H](C(=O)N[C@@H](CCC(N)=O)C(=O)N[C@@H](CCCNC(=N)N)C(=O)N[C@H](C(=O)N[C@@H](CCCCN)C(=O)N[C@@H](CC(=O)O)C(=O)N[C@@H](Cc1ccccc1)C(=O)N[C@@H](CC(C)C)C(=O)N[C@@H](CCCNC(=N)N)C(=O)N[C@@H](CC(N)=O)C(=O)N[C@@H](CC(C)C)C(=O)N[C@H](C(=O)N1CCC[C@H]1C(=O)N[C@@H](CCCNC(=N)N)C(=O)N[C@H](C(=O)N[C@@H](CCC(=O)O)C(=O)N[C@@H](CO)C(=O)O)[C@@H](C)O)C(C)C)[C@@H](C)CC)C(C)C)[C@@H](C)CC` [LL-37], the “Adenocarcinoma cell morphology versus control cells” value in data set [3] is on record as “no visible difference”. For the same compound, the “Antibacterial activity after pre-incubation at pH ~1.5 in the presence of pepsin” value in the data set with Escherichia coli MG1655 is “lost”. For the same compound, at pepsin, the “Stability to pepsin at low pH (mass spectrometry analysis)” value is listed as “extensive degradation”. Moreover, the “average MBC” value in the data set with H. pylori [4] (6 h) came to 300 ± 232 µg/mL; with H. pylori [4] (setting [13]) it was 8.9 ± 4.03 µg/mL.
Consider `Cc1ncc([N+](=O)[O-])n1CCO` [Metronidazole, metronidazole], for which the “Resistance classification by MIC” value in the data set with H. pylori [1] (H. pylori clinical strain 4, resistant when MIC above 16 μg/ml for Metronidazole) was “resistant”; in the data set with H. pylori [1] (setting [12]) it was “resistant”. Besides, the minimum inhibitory concentration (MIC) in the data set with H. pylori [1] (setting [5]) was determined as 0.19 µg/mL; with H. pylori [1] (setting [6]) it was 0.094 µg/mL; in the data set with H. pylori [1] (setting [7]), 0.5 µg/mL; in the data set with H. pylori [1] (setting [8]) it was 32 µg/mL; in the data set with H. pylori [1] (setting [9]), 96 µg/mL; in the data set on H. pylori [1] (setting [10]), 32 µg/mL. The MIC in the data set on H. pylori [1] (setting [11]) came out at 48 µg/mL; in the data set with H. pylori [1] (ATCC43504, 96 h, read-out: MIC), 64 µg/mL.
In the case of `CN(C)[C@@H]1C(O)=C(C(N)=O)C(=O)[C@@]2(O)C(O)=C3C(=O)c4c(O)cccc4[C@@](C)(O)[C@H]3C[C@@H]12` [TET, tetracycline], the “Susceptibility classification by MIC” value with H. pylori [1] was “susceptible”.
Turning to RRWVRRVRRWVRRVVRVVRRWVRR [WLBU2], the “Hemoglobin release from human red blood cells” value with human red blood cells (RBC in PBS, hematocrit ~5%, 0-200 μg/ml, 1 h at 37°C, absorbance at 540 nm, 100% = 2% Triton X-100, means of three experiments) is given as “strongest hemolytic agent”. The “Adenocarcinoma cell morphology versus control cells” value in data set [3] was “no visible difference”. Besides, the “Antibacterial activity after pre-incubation at pH ~1.5” value in the data set on Escherichia coli MG1655 is given as “not significantly changed”. The “Change of MBC on addition of 2 mM MgCl2” value in the data set on H. pylori [4] (H. pylori ATCC 43504) was “four fold increase”.
